Results as given in ChEMBL document CHEMBL1201862, “PubChem BioAssay data set” (2004).
Activity calls are given as the source filed them.

Tests used:
[1] = molecular target: T1, Carboxy-terminal domain RNA polymerase II polypeptide A small phosphatase 1 (Homo sapiens, UniProt Q9GZU7); test: CTDSP1 inhibitors, concentration-response, biochemical, absorbance readout, ultra-high-throughput screen actives (AID 540297); format: functional
T1 sequence (Q9GZU7 whole entry): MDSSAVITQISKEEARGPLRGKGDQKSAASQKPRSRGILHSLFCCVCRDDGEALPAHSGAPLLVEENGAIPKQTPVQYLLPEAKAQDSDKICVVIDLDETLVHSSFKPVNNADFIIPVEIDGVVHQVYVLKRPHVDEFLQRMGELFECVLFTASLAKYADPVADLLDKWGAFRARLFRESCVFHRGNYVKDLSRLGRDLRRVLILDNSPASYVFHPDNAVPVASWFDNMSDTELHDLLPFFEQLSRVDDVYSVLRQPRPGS

[2] = THP-1 cell cytotoxicity, dose response, cytotoxicity control for non-replicating M. tuberculosis project (AID 489025); format: functional
[3] = NIH-3T3 fibroblast cytotoxicity, dose response, cytotoxicity control, cell-based, fluorescence, Alamar Blue, secondary assay (AID 2327); format: functional;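 note: NIH-3T3 mouse fibroblasts cultured with fluconazole at 8 µg/mL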
[4] = Vero E6 cell cytotoxicity, dose response, cytotoxicity control for non-replicating M. tuberculosis project, secondary assay (AID 492998); format: functional, VeroE6; settings: Vero C1008
[5] = HepG2 cell cytotoxicity, dose response, cytotoxicity control for non-replicating M. tuberculosis project (AID 489018); format: functional; settings: Mycobacterium tuberculosis
[6] = fluconazole-exposed Candida albicans growth modulators – fluorescence, retest, confirmation (AID 2467); format: functional, cell-based
[7] = molecular target: T2, Serine/threonine-protein phosphatase (Candida dubliniensis (strain CD36 / CBS 7987 / NCPF 3949 / NRRLY-17841) (Yeast), UniProt B9W6M3); test: blockers of CaCl2-induced CDRE-lacZ signaling – S. cerevisiae, luminescence, secondary, dose response (AID 2388); format: functional, cell-based;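 note: yeast reporter cells carrying a calcineurin-responsive lacZ construct stimulated with calcium chloride; luminescent beta-galactosidase reporter signal in whole cells rather than isolated phosphatase activity; potency for inhibition where a drop in reporter signal means calcineurin blockade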
T2 sequence (B9W6M3 whole entry): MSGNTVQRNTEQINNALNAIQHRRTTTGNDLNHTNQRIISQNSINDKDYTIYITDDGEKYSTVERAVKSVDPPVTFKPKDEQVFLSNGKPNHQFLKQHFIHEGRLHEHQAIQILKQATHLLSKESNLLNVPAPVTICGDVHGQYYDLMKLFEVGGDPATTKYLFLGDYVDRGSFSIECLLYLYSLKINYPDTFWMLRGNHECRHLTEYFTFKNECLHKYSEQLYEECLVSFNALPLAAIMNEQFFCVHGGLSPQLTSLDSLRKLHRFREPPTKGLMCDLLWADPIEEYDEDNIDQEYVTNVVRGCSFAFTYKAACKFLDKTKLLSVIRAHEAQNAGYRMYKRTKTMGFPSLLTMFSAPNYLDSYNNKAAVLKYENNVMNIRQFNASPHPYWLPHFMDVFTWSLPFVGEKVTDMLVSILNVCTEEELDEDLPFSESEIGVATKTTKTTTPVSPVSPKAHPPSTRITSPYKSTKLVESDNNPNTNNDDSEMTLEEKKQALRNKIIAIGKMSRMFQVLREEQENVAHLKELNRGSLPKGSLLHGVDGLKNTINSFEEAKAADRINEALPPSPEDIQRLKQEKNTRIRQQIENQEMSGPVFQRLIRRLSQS

[8] = Luminescence Cell-Based Dose Retest to Confirm Inhibitors of Cancer Stem Cells. [Related pubchem assays (depositor defined):AID2717, AID2721]; format: functional; settings: Homo sapiens
cells = format: functional
[9] = molecular target: ATP-dependent molecular chaperone HSP82 (Candida albicans (strain WO-1) (Yeast), UniProt C4YTQ8); test: steroid-induced GRE reporter decrease in yeast – S. cerevisiae, luminescence, Hsp90 inhibitor project, dose response (AID 2400); format: functional, cell-based;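 note: beta-galactosidase luminescence from glucocorticoid response element reporter as proxy for Hsp90 function; inhibitor potency where signal loss means Hsp90 inhibition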
[10] = microbe, parasite or virus in culture; format: functional; settings: Mycobacterium tuberculosis
[11] = molecular target: T3, High affinity choline transporter 1 (Homo sapiens, UniProt Q9GZV3); test: human choline transporter blockers, potency – cell-based, 5-point CRC, membrane potential dye, dose response (AID 504840); format: functional
T3 sequence (Q9GZV3 whole entry): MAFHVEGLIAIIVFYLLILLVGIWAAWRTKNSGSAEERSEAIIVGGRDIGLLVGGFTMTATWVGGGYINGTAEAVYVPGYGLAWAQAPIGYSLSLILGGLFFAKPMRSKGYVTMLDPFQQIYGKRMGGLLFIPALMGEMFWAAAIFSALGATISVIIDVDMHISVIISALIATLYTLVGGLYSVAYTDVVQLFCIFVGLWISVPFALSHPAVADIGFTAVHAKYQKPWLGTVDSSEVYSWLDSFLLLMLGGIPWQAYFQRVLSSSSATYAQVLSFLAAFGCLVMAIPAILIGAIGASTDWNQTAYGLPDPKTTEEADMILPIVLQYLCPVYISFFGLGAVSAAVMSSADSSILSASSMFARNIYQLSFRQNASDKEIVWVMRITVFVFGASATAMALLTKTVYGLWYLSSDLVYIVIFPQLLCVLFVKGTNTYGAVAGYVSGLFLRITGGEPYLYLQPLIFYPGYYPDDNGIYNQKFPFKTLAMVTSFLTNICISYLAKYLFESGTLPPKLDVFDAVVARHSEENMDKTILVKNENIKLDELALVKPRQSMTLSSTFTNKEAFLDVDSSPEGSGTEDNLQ

Genome polyprotein = Genome polyprotein (dengue virus type 2, UniProt P29990); test: flavivirus cap methylation enzyme inhibition – biochemical, confirmation dose response, primary screen (AID 588689); format: functional
[12] = molecular target: T4, Endoribonuclease toxin MazF (Escherichia coli K-12, UniProt P0AE70); test: activation of MazEF endoribonuclease cleavage – biochemical, fluorescence, single-stranded RNA substrate, uHTS hits, dose response (AID 588481); format: functional
T4 sequence (P0AE70 whole entry): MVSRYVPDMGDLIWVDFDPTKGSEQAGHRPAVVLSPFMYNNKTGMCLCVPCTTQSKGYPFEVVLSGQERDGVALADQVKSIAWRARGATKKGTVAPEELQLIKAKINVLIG

[13] = molecular target: T5, Zinc finger protein mex-5 (Caenorhabditis elegans, UniProt Q9XUB2); test: potency of MEX-5 RNA-binding blockers – biochemical, C. elegans, fluorescence polarization, dose response (AID 1960)
T5 sequence (Q9XUB2 whole entry): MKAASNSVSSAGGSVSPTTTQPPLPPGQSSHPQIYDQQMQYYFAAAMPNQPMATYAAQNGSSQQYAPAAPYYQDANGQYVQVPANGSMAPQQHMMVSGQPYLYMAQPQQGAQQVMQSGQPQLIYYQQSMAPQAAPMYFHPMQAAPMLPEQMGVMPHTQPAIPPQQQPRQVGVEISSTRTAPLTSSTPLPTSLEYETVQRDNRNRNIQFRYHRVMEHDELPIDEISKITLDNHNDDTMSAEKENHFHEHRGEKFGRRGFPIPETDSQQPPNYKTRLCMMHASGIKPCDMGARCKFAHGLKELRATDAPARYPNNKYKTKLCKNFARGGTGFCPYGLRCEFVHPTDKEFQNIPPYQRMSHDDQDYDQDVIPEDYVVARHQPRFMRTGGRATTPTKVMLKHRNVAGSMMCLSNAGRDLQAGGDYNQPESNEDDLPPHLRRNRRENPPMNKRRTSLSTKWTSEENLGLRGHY

[14] = molecular target: T6, RNA-binding protein pos-1 (Caenorhabditis elegans, UniProt G5EF15); test: disruptors of C. elegans POS-1 RNA interaction – biochemical, fluorescence polarization, dose response (AID 1964);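 note: purified POS-1 fused to maltose binding protein made in E. coli; potency of compounds blocking POS-1 binding to fluorescent RNA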
T6 sequence (G5EF15 whole entry): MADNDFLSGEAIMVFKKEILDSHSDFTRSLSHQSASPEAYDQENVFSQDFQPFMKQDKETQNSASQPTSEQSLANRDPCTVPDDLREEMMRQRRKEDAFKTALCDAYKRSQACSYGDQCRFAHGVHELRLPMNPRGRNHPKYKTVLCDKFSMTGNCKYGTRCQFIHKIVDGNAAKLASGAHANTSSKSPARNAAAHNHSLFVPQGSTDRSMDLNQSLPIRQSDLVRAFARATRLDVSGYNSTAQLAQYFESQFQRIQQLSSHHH

[15] = molecular target: T4, Endoribonuclease toxin MazF; test: substrate-only fluorescence increase artefacts – biochemical, single-stranded RNase substrate, counter-screen for MazEF activator project, dose response (AID 588502); format: functional
Leucine aminopeptidase = molecular target: T7, Leucine aminopeptidase (Plasmodium falciparum 3D7, UniProt Q8IL11); test: P. falciparum M17LAP inhibitors, primary screen, biochemical, fluorogenic H-Leu-NHMec substrate, 1536-well (AID 1619); format: functional
T7 sequence (Q8IL11 whole entry): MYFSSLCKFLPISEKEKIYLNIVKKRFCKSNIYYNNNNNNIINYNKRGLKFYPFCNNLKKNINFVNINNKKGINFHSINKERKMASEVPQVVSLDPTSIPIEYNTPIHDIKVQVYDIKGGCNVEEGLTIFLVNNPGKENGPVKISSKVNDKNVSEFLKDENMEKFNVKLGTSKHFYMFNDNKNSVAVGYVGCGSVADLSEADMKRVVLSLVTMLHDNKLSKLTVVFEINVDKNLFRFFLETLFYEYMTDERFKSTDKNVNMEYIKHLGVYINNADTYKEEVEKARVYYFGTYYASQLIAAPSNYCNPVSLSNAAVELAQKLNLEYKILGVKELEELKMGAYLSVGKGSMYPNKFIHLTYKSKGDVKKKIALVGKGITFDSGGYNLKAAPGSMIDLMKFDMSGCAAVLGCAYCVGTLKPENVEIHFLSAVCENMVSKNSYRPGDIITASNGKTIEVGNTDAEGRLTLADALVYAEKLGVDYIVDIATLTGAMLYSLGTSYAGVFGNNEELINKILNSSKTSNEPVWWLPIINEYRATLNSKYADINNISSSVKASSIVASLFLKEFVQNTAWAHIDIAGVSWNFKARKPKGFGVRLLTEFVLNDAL

Estrogen receptor = molecular target: T8, Estrogen receptor (Homo sapiens, UniProt P03372);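 note: potency for inhibiting coactivator peptide recruitment to the receptor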
T8 sequence (P03372 whole entry): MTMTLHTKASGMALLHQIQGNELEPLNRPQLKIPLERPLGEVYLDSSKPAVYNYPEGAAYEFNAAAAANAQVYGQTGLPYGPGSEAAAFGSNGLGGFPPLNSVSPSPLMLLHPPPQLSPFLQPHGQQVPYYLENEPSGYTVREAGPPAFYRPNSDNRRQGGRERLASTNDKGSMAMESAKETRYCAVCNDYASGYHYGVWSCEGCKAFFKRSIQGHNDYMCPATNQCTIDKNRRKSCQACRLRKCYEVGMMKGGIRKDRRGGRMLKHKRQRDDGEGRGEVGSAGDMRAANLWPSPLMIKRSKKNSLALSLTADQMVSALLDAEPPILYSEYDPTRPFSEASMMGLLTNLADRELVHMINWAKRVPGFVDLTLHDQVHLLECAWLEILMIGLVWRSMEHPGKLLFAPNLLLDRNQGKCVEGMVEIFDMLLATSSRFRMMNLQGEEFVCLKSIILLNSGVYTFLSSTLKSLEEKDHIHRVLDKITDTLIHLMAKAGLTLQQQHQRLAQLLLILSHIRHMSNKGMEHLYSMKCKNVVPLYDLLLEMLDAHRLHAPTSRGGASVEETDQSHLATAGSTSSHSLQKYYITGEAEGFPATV
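Throughout, for AC50: cells exposed to compound for roughly 70 hours or longer before luminescence read.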

ATP-dependent molecular chaperone HSP82, sequence (C4YTQ8 whole entry): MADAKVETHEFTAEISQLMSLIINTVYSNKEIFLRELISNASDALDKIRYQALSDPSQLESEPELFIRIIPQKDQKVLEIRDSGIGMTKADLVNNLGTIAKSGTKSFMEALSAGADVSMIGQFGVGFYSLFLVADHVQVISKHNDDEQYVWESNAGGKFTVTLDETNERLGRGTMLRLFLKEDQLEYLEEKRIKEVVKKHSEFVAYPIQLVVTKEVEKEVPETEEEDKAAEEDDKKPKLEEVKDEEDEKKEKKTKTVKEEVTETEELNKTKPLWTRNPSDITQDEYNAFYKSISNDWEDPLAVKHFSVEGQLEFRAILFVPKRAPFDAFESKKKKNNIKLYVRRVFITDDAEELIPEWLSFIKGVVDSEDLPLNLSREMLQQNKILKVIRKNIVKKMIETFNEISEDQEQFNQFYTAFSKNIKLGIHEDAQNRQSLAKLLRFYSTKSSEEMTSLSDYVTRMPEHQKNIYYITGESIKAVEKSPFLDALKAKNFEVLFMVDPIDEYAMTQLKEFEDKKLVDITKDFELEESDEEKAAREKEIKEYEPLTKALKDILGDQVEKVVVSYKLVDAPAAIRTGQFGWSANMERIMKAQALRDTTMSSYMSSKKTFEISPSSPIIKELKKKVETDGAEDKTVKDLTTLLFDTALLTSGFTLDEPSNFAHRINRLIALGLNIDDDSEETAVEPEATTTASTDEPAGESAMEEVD
Genome polyprotein, sequence (P29990 2492-3391 limits assumed): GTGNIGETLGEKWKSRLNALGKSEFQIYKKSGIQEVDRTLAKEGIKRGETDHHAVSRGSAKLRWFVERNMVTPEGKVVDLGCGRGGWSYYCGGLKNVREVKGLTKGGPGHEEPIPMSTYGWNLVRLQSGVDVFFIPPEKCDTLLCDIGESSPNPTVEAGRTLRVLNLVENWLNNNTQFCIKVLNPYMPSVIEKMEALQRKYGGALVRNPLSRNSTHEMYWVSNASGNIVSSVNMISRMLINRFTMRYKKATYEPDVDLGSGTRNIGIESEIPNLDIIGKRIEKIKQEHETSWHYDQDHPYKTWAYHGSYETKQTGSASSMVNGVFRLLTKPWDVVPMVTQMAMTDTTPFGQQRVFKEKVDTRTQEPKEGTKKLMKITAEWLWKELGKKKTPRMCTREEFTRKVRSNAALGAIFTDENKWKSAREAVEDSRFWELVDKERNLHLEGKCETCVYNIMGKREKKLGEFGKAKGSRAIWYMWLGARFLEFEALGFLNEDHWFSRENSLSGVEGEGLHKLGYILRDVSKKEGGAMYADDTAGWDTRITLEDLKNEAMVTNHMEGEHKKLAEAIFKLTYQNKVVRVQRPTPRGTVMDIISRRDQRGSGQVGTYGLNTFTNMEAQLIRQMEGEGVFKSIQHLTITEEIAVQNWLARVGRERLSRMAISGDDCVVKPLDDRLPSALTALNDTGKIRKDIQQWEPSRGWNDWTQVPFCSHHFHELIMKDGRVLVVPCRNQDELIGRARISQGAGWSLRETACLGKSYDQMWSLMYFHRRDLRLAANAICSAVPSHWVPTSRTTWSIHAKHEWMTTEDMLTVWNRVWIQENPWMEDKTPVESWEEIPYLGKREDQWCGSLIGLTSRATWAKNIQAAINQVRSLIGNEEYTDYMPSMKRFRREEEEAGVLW

SMILES: O=C(NNC(=O)c1cc2cc3ccccc3nc2s1)c1ccc(F)cc1
- IC50 [1]: 4.28 µM (active)

SMILES: CC1(O)CC(c2ccc(Cl)cc2)=NN1C(=O)c1ccc([N+](=O)[O-])cc1 (configuration not stated)
- CC50 [2]: 15.5 µM (active)
- EC50 [3]: > 150 µM (inconclusive)
- CC50 [4]: 19.5 µM (active)
- CC50 [5]: > 20 µM (active)
- EC50 [6]: 0.404 µM (active)
- EC50 [7]: > 180 µM (inactive)
- AC50 [8]: 3.86 µM (active)
- IC50 (cells): 14.2 µM (active)
- EC50 [9]: 12.5 µM (active)
- CC50 [10]: 24.7 µM (active)

SMILES: O=C(NCc1ccccc1)c1sc(=S)n2c1[nH]c(=O)c1ccccc12
- IC50 [11]: 22 µM (active)
- EC50 [3]: > 150 µM (inactive)
- EC50 [6]: 0.706 µM (active)
- EC50 [7]: > 180 µM (inactive)
- EC50 [9]: 6.61 µM (active)
- IC50 (Genome polyprotein): 77 µM (active)

SMILES: O=C(COc1cccc2ccccc12)Nc1cc(Cl)ccc1C(=O)O
- IC50 (Genome polyprotein): 40.5 µM (active)

SMILES: O=C(O)Cc1ccc(NC(=O)c2ccc3c(c2)C(=O)N(Cc2ccco2)C3=O)cc1
- IC50 [1]: 3.79 µM (active)

SMILES: CC(=O)c1sc2nc(-c3cccs3)cc(C(F)(F)F)c2c1N
- EC50 [12]: > 99 µM (inactive)
- EC50 [13]: > 300 µM (not active)
- EC50 [14]: 45.9 µM (active)
- EC50 [15]: 22.3 µM (inactive)

SMILES: CCOC(=O)c1c(NC(=O)C2C3C=CC(C3)C2(C)C(=O)O)sc2c1CCCC2 (configuration not stated)
- IC50 (Leucine aminopeptidase): 8.1 µM (active)
- IC50 [1]: 16.1 µM (active)

SMILES: COc1ccc(OCCC(=O)OCC(=O)NCc2ccco2)cc1
- IC50 [1]: 9.12 µM (active)
- IC50 (Estrogen receptor): 33.3 µM (not active)
